Test results published in patent US20110269826A1, “Method” (priority 2008, published 2011).

Tested on: MPTP primates
Experiment: Dyskinesia and locomotor studies in drug-naive MPTP primates incl. L-Dopa and apomorphine challenge
Experimental: Evaluation of dyskinesias was performed in the efficacy studies describe above using a novel method for dyskinesia quantification based on video dyskinesia analysis (VDA) that assesses the whole range of dyskinetic movement continuously during the observed video sequence, using a standardized protocol.
To mimic clinical conditions, these drug-naive animals were further challenged with acute systemic administration of L-Dopa then with a pro-dyskinetic short-acting D1/D2 dopaminergic agonist (apomorphine).
Experimental Design. Neurotoxin MPTP was first administrated to 23 macaques until they developed severe Parkinsonism, these were then divided into experimental groups according to the following experiments: • 1. […] Animals were then challenged with L-Dopa and the number of dyskinesias was assessed with a specific software (The Observer®, Noldus)
Behaviour. All animals were assessed daily for their general clinical condition with special attention paid to the nutritional status. At the same time, the general neurological state of each macaque was assessed both pre- and post-lentiviral injections. To objectively quantify our neurological observations, animals were video-taped for 30 minutes before MPTP lesioning and at regular intervals following viral injections. The videos were then analyzed off-line by an examiner blinded to the experimental conditions. […]

CN1CCc2cccc3c2[C@H]1Cc1ccc(O)c(O)c1-3 [apomorphine]
dyskinesia induced by the drug in drug naive MPTP animals (acute systemic administration, no therapeutic vector): induced hyperkinetic behaviour with numerous dyskinetic movements
locomotor activity of MPTP-long term and MPTP-LacZ primates after the drug (oral L-Dopa / apomorphine injection, to levels similar to normal primates, p<0.05): improved the locomotor activity
